Test results: patent US20080171893A1, “Isotopically labeled alpha-keto acids and esters” (Spectra Gases, Inc., priority 2006, published 2008)

How the values were obtained:
[1] = Shelf storage stability of [1-^13C]pyruvic acid in water, by ^1H and ^13C NMR; type: physicochemical; conditions: 0.025M in water
Experimental: Samples of isotopically labeled [1-^13C]pyruvic acid, having Formula VI and synthesized as discussed immediately below, were subjected to various conditions as depicted in Table 1, in order to establish the compound's shelf storage stability.
The resulting [1-^13C]pyruvic acid was tested as follows in Table 1:
^1H and ^13C NMR spectra of the distilled [1-^13C]pyruvic acid in water (0.025M) were acquired at the onset of the study and prior to exposing the samples to the various conditions specified in Table 1. ^1H and ^13C NMR spectra were again acquired for each of the samples after being exposed to the aforementioned conditions on a weekly basis for 12-weeks. The spectra acquired after exposure were compared visually and appeared to remain unchanged as compared with the spectra acquired prior to exposure, i.e. the spectra were as expected for [1-^13C]pyruvic acid in water. As such, it was concluded that each of the samples were shelf stable. Similarly, ^1H and ^13C NMR spectra acquired after 17-weeks of exposure remained unchanged as compared with the spectra acquired prior to exposure.

[2] = Titration of aqueous sample 4 with sodium hydroxide, composition by HPLC; type: physicochemical; conditions: sample 4 titrated with sodium hydroxide to pH of about 6.2
Source text: The molarity of sample 4 was confirmed to be 0.025M by titrating the aqueous sample with sodium hydroxide. […] It was also discovered that at pHs greater than 5.8, such as at a pH of about 6.2, some of the pyruvic acid was present in the form of a dimerized sodium salt. […] As such, it was discovered that to minimize dimmer formation, it may be necessary to control the pH of [1-^13C]pyruvate solutions, and in particular, any aqueous solution should be maintained at a pH of about 6.5 or less, more preferably 6.0 or less, and even more preferably 5.8 or less.

[3] = Concentration study: stability of pyruvic acid solutions in water at higher concentrations; type: physicochemical; parameters: unit not given here; conditions: light, about 22° C. to about 26° C.
Experimental: Each of these commercial solutions were subjected to light for 6-weeks at temperatures ranging from about 22° C. to about 26° C. At each of the concentrations listed below, it was discovered that the pyruvic acid solutions were stable.

[4] = background statement; cited from earlier work
[5] = Sample 1: −10° C., dark, NMR spectra unchanged
[6] = Sample 3: room temperature (about 22° C. to about 26° C.), dark
[7] = Sample 4: room temperature (about 22° C. to about 26° C.), light

| SMILES | Shelf stability, 12 weeks [1, 5] | Shelf stability, 17 weeks [1, 5] | Shelf stability, 12 weeks ([1]; Sample 2: 4° C., dark) | Shelf stability, 17 weeks ([1]; Sample 2: 4° C., dark) | Shelf stability, 12 weeks [1, 6] | Shelf stability, 17 weeks [1, 6] | Shelf stability, 12 weeks [1, 7] | Shelf stability, 17 weeks [1, 7] | Content of dimerized [1-^13C]pyruvate salt by HPLC [2] | Content of sodium [1-^13C]pyruvate by HPLC [2] [%] | Share of the pyruvic acid accounted for by the dimerized salt [2] | Stability after 6-weeks ([3]; concentration 2.3 in water) | Stability after 6-weeks ([3]; concentration 2.8 in water) | Stability after 6-weeks ([3]; concentration 3.8 in water) | Stability after 6-weeks ([3]; concentration 5.7 in water) | Stability after 6-weeks ([3]; concentration 11.3 in water) | Solubility in water [4] |
| --- | --- | --- | --- | --- | --- | --- | --- | --- | --- | --- | --- | --- | --- | --- | --- | --- | --- |
| CC(=O)[13C](=O)O [[1-^13C]pyruvic acid] | Stable | Stable | Stable | Stable | Stable | Stable | Stable | Stable | 2-4% | 89 | 4-6% | – | – | – | – | – | – |
| CC(=O)C(=O)O [Formula VIB, 2-oxopropanoic acid] | – | – | – | – | – | – | – | – | – | – | – | Stable | Stable | Stable | Stable | Stable | soluble in water |
